Experimental data published in ChEMBL document CHEMBL3414448, “Advances in the discovery of novel antimicrobials targeting the assembly of bacterial cell division protein FtsZ” (Eur J Med Chem, 2015).
In brackets after ≈: the same amount, converted by molar mass. Each block holds one compound with its values, some of them ahead of it.

Tests used:
[1] = tested on: Bacillus subtilis; experiment: Antimicrobial activity against Bacillus subtilis 168; format: functional
[2] = tested on: Staphylococcus aureus; experiment: Antimicrobial activity against methicillin-sensitive Staphylococcus aureus ATCC 29213; format: functional
[3] = tested on: Enterococcus faecium; experiment: Antimicrobial activity against ampicillin-resistant and levofloxacin-resistant Enterococcus faecium 12160560; format: functional
[4] = tested on: Enterococcus faecalis; experiment: Antimicrobial activity against Enterococcus faecalis ATCC 29212; format: functional
[5] = tested on: Streptococcus pneumoniae; experiment: Antimicrobial activity against Streptococcus pneumoniae ATCC 49619; format: functional
[6] = tested on: Acinetobacter baumannii; experiment: Antimicrobial activity against multidrug-resistant Acinetobacter baumannii 12159796; format: functional
[7] = tested on: Pseudomonas aeruginosa; experiment: Antimicrobial activity against Pseudomonas aeruginosa ATCC 27853; format: functional
[8] = tested on: Enterobacter cloacae; experiment: Antimicrobial activity against multidrug-resistant Enterobacter cloacae 12161389; format: functional
[9] = tested on: Escherichia coli; experiment: Antimicrobial activity against Escherichia coli ATCC 35218; format: functional
[10] = tested on: Klebsiella pneumoniae; experiment: Antimicrobial activity against ESBL producing Klebsiella pneumoniae ATCC 700603; format: functional
[11] = tested on: Staphylococcus aureus; experiment: Antimicrobial activity against methicillin-resistant Staphylococcus aureus; format: functional
[12] = tested on: Staphylococcus aureus; experiment: Antimicrobial activity against multidrug-resistant Staphylococcus aureus; format: functional
[13] = tested on: Enterococcus; experiment: Antimicrobial activity against […]-resistant Enterococcus; format: functional
[14] = molecular target: T1, Cell division protein FtsZ (Escherichia coli K-12, UniProt P0A9A6); experiment: Inhibition of Escherichia coli FtsZ GTPase activity
T1 sequence (P0A9A6 whole entry): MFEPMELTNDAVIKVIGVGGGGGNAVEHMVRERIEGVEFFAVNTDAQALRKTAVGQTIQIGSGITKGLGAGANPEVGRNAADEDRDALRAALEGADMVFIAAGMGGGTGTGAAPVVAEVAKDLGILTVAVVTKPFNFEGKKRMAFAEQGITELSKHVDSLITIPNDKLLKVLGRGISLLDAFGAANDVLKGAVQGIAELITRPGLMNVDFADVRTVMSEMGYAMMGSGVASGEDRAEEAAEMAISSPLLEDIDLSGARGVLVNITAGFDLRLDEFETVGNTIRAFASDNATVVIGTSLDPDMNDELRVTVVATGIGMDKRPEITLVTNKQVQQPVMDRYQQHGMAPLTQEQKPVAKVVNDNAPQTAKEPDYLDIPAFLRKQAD

[15] = tested on: Staphylococcus aureus; experiment: Antimicrobial activity against Staphylococcus aureus UAMS1; format: functional
[16] = tested on: Staphylococcus aureus; experiment: Antimicrobial activity against community acquired methicillin-resistant Staphylococcus aureus USA300-LAC; format: functional
[17] = tested on: Staphylococcus; experiment: Antimicrobial activity against Staphylococcus; format: functional
[18] = tested on: Staphylococcus; experiment: Antimicrobial activity against Staphylococcus relative to PC190723; format: functional
[19] = Selectivity index, ratio of IC50 for human HeLa cells to MIC for Staphylococcus aureus MR12160636
[20] = tested on: Escherichia coli; experiment: Antimicrobial activity against Escherichia coli; format: functional
[21] = tested on: Staphylococcus aureus; experiment: Antimicrobial activity against Staphylococcus aureus; format: functional
[22] = Inhibition of FtsZ (unknown origin) assessed as reduction in enzyme GTPase activity
[23] = tested on: Bacillus subtilis; experiment: Antimicrobial activity against Bacillus subtilis; format: functional

Structure (SMILES): O=C(Oc1cc(OC(=O)c2cc(O)c(O)c(O)c2)c2ccccc2c1)c1cc(O)c(O)c(O)c1
- MIC [1]: 64 µg/mL (≈ 138 µM)
- MIC [2]: 32 µg/mL (≈ 68.9 µM)
- MIC [3]: 64 µg/mL (≈ 138 µM)
- MIC [4]: 64 µg/mL (≈ 138 µM)
- MIC [5]: 64 µg/mL (≈ 138 µM)
- MIC [6]: 64 µg/mL (≈ 138 µM)
- MIC [7]: 128 µg/mL (≈ 276 µM)
- MIC [8]: 128 µg/mL (≈ 276 µM)
- MIC [9]: 128 µg/mL (≈ 276 µM)
- MIC [10]: 128 µg/mL (≈ 276 µM)

Structure (SMILES): Oc1cc(O)c2c(c1)C/C(Cl)=C\Cc1cc(c(Cl)cc1O)Oc1c(O)cc(cc1O)C/C(Cl)=C\Cc1cc(c(Cl)cc1O)O2
- MIC [11]: 1.5 µg/mL (≈ 2.21 µM)
- MIC [12]: 1.3 µg/mL (≈ 1.92 µM)
- MIC [13]: 2.9 µg/mL (≈ 4.28 µM)

Structure (SMILES): COc1cc(C/C=C(/Cl)Cc2cc(O)cc(O)c2)c(OC)cc1Cl
- IC50 [14]: 37 µM
- MIC [15]: 1 µg/mL (≈ 2.71 µM)
- MIC [16]: 1 µg/mL (≈ 2.71 µM)

- MIC [17]: 0.12 µg/mL (≈ 0.237 µM)
Structure (SMILES): NC(=O)c1c(F)ccc(O[C@H](CO)c2nc(-c3ccc(C(F)(F)F)cc3)c(Br)o2)c1F
- Ratio [18]: 4

Structure (SMILES): O=C(Oc1cc(OC(=O)c2cc(O)cc(O)c2)c2ccccc2c1)c1cc(O)c(O)c(O)c1
- MIC [1]: 16 µg/mL (≈ 35.7 µM)
- MIC [2]: 16 µg/mL (≈ 35.7 µM)
- MIC [3]: 32 µg/mL (≈ 71.4 µM)
- MIC [4]: 32 µg/mL (≈ 71.4 µM)
- MIC [5]: 32 µg/mL (≈ 71.4 µM)
- MIC [6]: 64 µg/mL (≈ 143 µM)
- MIC [7]: 64 µg/mL (≈ 143 µM)
- MIC [8]: 128 µg/mL (≈ 285 µM)
- MIC [9]: 128 µg/mL (≈ 285 µM)
- MIC [10]: 128 µg/mL (≈ 285 µM)

Structure (SMILES): O=C(Oc1cc(OC(=O)c2ccc(O)c(Cl)c2)c2ccccc2c1)c1ccc(O)c(Cl)c1
- Ratio [19]: 5
- MIC [1]: 4 µg/mL (≈ 8.52 µM)
- MIC [2]: 8 µg/mL (≈ 17 µM)
- MIC [3]: 4 µg/mL (≈ 8.52 µM)
- MIC [4]: 2 µg/mL (≈ 4.26 µM)
- MIC [5]: 32 µg/mL (≈ 68.2 µM)
- MIC [6]: 32 µg/mL (≈ 68.2 µM)
- MIC [7]: 64 µg/mL (≈ 136 µM)
- MIC [8]: 128 µg/mL (≈ 273 µM)
- MIC [9]: 128 µg/mL (≈ 273 µM)
- MIC [10]: 128 µg/mL (≈ 273 µM)

Structure (SMILES): Cc1nc(-c2cccs2)cc([C@H]2CN3CC[C@H]2C[C@@H]3CNC(=O)CCCC(=O)O)n1
- MIC [20]: 192 µg/mL (≈ 449 µM)
- MIC [21]: 384 µg/mL (≈ 897 µM)
- IC50 [22]: 317 µM

Structure (SMILES): CCC(CC)c1cc([C@H]2CN3CC[C@H]2C[C@@H]3CNCc2ccc(CO)o2)nc(-c2ccncc2)n1
- MIC [20]: 36 µg/mL (≈ 75.7 µM)
- MIC [21]: 24 µg/mL (≈ 50.5 µM)
- IC50 [22]: 73.2 µM

Structure (SMILES): CCC(CC)c1cc([C@H]2CN3CC[C@H]2C[C@@H]3CNCc2ccco2)nc(-c2ccncc2)n1
- MIC [20]: 72 µg/mL (≈ 162 µM)
- MIC [21]: 12 µg/mL (≈ 26.9 µM)
- IC50 [22]: 55.7 µM

Structure (SMILES): CCC(CC)c1cc([C@H]2CN3CC[C@H]2C[C@@H]3CN)nc(-c2ccncc2)n1
- MIC [20]: 18 µg/mL (≈ 49.2 µM)
- MIC [21]: 9 µg/mL (≈ 24.6 µM)
- IC50 [22]: 37.5 µM

- IC50 [14]: 8.3 µM
- MIC [23]: 1.77 µg/mL (≈ 2.6 µM)
- MIC [21]: 1.16 µg/mL (≈ 1.7 µM)
Structure (SMILES): O=C1C[C@@H](c2ccccc2)Oc2c(Cc3cc(Cc4ccccc4O)ccc3O)c(O)c(Cc3cc(Cc4ccccc4O)ccc3O)c(O)c21

Structure (SMILES): Oc1cc(O)cc(C/C(Cl)=C\Cc2cc(O)c(Cl)cc2O)c1
- MIC [15]: 1 µg/mL (≈ 2.93 µM)
- MIC [16]: 1 µg/mL (≈ 2.93 µM)
